Measured values taken from the NIST ThermoML archive (doi:10.1021/je300938w).
± gives the expanded uncertainty stated by the source.

How the values were obtained:
[1] = wn = mass fraction of the nth substance listed; conditions: 101 kPa, Liquid; for viscosity: Concentric cylinders viscometry; for mass density: Vibrating tube method
[2] = refractive index (Na D-line) (dimensionless); wn = mass fraction of the nth substance listed; conditions: 101 kPa, Liquid, Standard Abbe refractometry

OCCNCCO [diethanolamine] + O
Conditions	mass density, [1] [kg/m3]	refractive index, [2]	viscosity, [1] [mPa·s]
298.15 K, w1 = 0.05	1003.46 ± 0.042	1.3394 ± 0.00031	1.059 ± 0.0073
298.15 K, w1 = 0.1	1009.09 ± 0.045	1.34654 ± 0.00031	1.27 ± 0.0079
298.15 K, w1 = 0.15	1014.94 ± 0.049	1.35439 ± 0.00031	1.503 ± 0.0088
298.15 K, w1 = 0.2	1020.92 ± 0.052	1.36184 ± 0.00031	1.893 ± 0.01
298.15 K, w1 = 0.25	1027.11 ± 0.056	1.37017 ± 0.00031	2.376 ± 0.012
303.15 K, w1 = 0.05	1001.98 ± 0.042	1.33875 ± 0.00031	0.9498 ± 0.007
303.15 K, w1 = 0.1	1007.53 ± 0.045	1.34585 ± 0.00031	1.129 ± 0.0075
303.15 K, w1 = 0.15	1013.27 ± 0.048	1.35368 ± 0.00031	1.319 ± 0.0081
303.15 K, w1 = 0.2	1019.14 ± 0.051	1.36108 ± 0.00031	1.649 ± 0.0093
303.15 K, w1 = 0.25	1025.19 ± 0.055	1.36935 ± 0.00031	2.05 ± 0.011
308.15 K, w1 = 0.05	1000.3 ± 0.041	1.33801 ± 0.00031	0.8569 ± 0.0067
308.15 K, w1 = 0.1	1005.77 ± 0.044	1.34511 ± 0.00031	1.013 ± 0.0072
308.15 K, w1 = 0.15	1011.42 ± 0.047	1.35288 ± 0.00031	1.174 ± 0.0076
308.15 K, w1 = 0.2	1017.18 ± 0.051	1.36028 ± 0.00031	1.455 ± 0.0086
308.15 K, w1 = 0.25	1023.11 ± 0.054	1.36847 ± 0.00031	1.795 ± 0.0098
313.15 K, w1 = 0.05	998.43 ± 0.041	1.3372 ± 0.00031	0.7792 ± 0.0065
313.15 K, w1 = 0.1	1003.83 ± 0.043	1.34427 ± 0.00031	0.9142 ± 0.0069
313.15 K, w1 = 0.15	1009.39 ± 0.046	1.35208 ± 0.00031	1.051 ± 0.0073
313.15 K, w1 = 0.2	1015.05 ± 0.05	1.35939 ± 0.00031	1.295 ± 0.0081
313.15 K, w1 = 0.25	1020.89 ± 0.053	1.36756 ± 0.00031	1.585 ± 0.009
318.15 K, w1 = 0.05	996.373 ± 0.042	1.33633 ± 0.00031	0.7137 ± 0.0064
318.15 K, w1 = 0.1	1001.71 ± 0.042	1.3434 ± 0.00031	0.8307 ± 0.0067
318.15 K, w1 = 0.15	1007.2 ± 0.046	1.35122 ± 0.00031	0.948 ± 0.007
318.15 K, w1 = 0.2	1012.78 ± 0.049	1.35862 ± 0.00031	1.161 ± 0.0076
318.15 K, w1 = 0.25	1018.51 ± 0.053	1.36659 ± 0.00031	1.411 ± 0.0085
323.15 K, w1 = 0.05	994.141 ± 0.043	1.33539 ± 0.00031	0.653 ± 0.0062
323.15 K, w1 = 0.1	999.439 ± 0.042	1.34245 ± 0.00031	0.7593 ± 0.0065
323.15 K, w1 = 0.15	1004.85 ± 0.045	1.35028 ± 0.00031	0.8599 ± 0.0067
323.15 K, w1 = 0.2	1010.35 ± 0.048	1.35777 ± 0.00031	1.048 ± 0.0073
323.15 K, w1 = 0.25	1016 ± 0.052	1.36557 ± 0.00031	1.266 ± 0.008
328.15 K, w1 = 0.05	991.746 ± 0.044	1.33442 ± 0.00031	0.6017 ± 0.0061
328.15 K, w1 = 0.1	996.992 ± 0.043	1.34148 ± 0.00031	0.6969 ± 0.0063
328.15 K, w1 = 0.15	1002.36 ± 0.044	1.34935 ± 0.00031	0.7836 ± 0.0065
328.15 K, w1 = 0.2	1007.78 ± 0.047	1.3568 ± 0.00031	0.9519 ± 0.007
328.15 K, w1 = 0.25	1013.36 ± 0.051	1.36453 ± 0.00031	1.141 ± 0.0075
333.15 K, w1 = 0.05	989.2 ± 0.045	1.3334 ± 0.00031	0.5596 ± 0.0059
333.15 K, w1 = 0.1	994.401 ± 0.044	1.34044 ± 0.00031	0.643 ± 0.0062
333.15 K, w1 = 0.15	999.713 ± 0.043	1.3485 ± 0.00031	0.7178 ± 0.0064
333.15 K, w1 = 0.2	1005.07 ± 0.046	1.35582 ± 0.00031	0.8673 ± 0.0068
333.15 K, w1 = 0.25	1010.55 ± 0.05	1.36354 ± 0.00031	1.037 ± 0.0073
338.15 K, w1 = 0.05	986.501 ± 0.046	1.33234 ± 0.00031	0.5269 ± 0.0059
338.15 K, w1 = 0.1	991.668 ± 0.045	1.33938 ± 0.00031	0.5932 ± 0.006
338.15 K, w1 = 0.15	996.929 ± 0.044	1.34755 ± 0.00031	0.6619 ± 0.0062
338.15 K, w1 = 0.2	1002.23 ± 0.045	1.3547 ± 0.00031	0.799 ± 0.0066
338.15 K, w1 = 0.25	1007.44 ± 0.048	1.36244 ± 0.00031	0.9543 ± 0.007
343.15 K, w1 = 0.05	983.659 ± 0.047	1.33122 ± 0.00031	0.5002 ± 0.0058
343.15 K, w1 = 0.1	988.796 ± 0.046	1.3382 ± 0.00031	0.5534 ± 0.0059
343.15 K, w1 = 0.15	993.878 ± 0.045	1.34633 ± 0.00031	0.6185 ± 0.0061
343.15 K, w1 = 0.2	999.25 ± 0.045	1.35356 ± 0.00031	0.7459 ± 0.0065
343.15 K, w1 = 0.25	1004.41 ± 0.047	1.3614 ± 0.00031	0.8922 ± 0.0068
